For one data set, the target named is Protease (Human immunodeficiency virus 1, UniProt Q9YQ12). In words: Inhibition of HIV1 protease expressed in Escherichia coli using DABCYL-Abu-Ser-Gln-ASN-Tyr-Pro-Ile-Val-Gln-EDANS as substrate preincubated for 20 mins measured for 45 mins by fluorometry.
The test system of data set [1] is Human immunodeficiency virus 1. Nature of the data set: Antiviral activity against HIV1 infected in human MT4 cells. It counts as functional, organism-based. The note with it: Human immunodeficiency virus 1, MT4.
For the next data set, the system named is MT4. Nature of the data set: Cytotoxicity against human MT4 cells after 5 days by XTT assay. It counts as cell-based. The following applies: mt4, 120 h. For orientation: Formazan colour is commonly taken as a measure of viable cells.
Data set [2] is described as follows: (§1) Intrinsic clearance in human liver microsomes at 1 uM after 30 mins by LC-MS/MS analysis. It counts as ADME, Microsome. The note with it: liver microsomes, read-out: CLH. For orientation: Liver microsomes are vesicles of endoplasmic reticulum, rich in cytochrome P450 enzymes.
A further data set relates to Caco-2. Nature of the data set: Apparent permeability from apical to basolateral side in human Caco2 cells after 60 mins. The note with it: caco-2, 1 h. It counts as ADME, cell-based.
The subject of a further data set is Liver microsomes. The data set is described as §1. It counts as ADME, Microsome. The following applies: microsomes, 0.5 h, 1 µM.

Broadly, the Ki is the equilibrium dissociation constant of an inhibitor or competing ligand from its target. What is called EC50 is the concentration giving half of the maximal effect. A low value points to greater potency. For orientation: CC50 means the concentration that lowers cell viability or growth by half. Usually Papp stands for a coefficient for how fast a substance crosses the barrier.

Protease, sequence (Q9YQ12 whole entry): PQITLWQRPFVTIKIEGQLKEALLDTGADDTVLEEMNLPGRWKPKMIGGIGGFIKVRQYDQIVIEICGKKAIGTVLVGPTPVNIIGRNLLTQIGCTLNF

Molecule `COC(=O)N[C@H](C(=O)NN(CC[C@@]1(Cc2ccccc2)C(=O)N([C@H]2c3ccccc3C[C@H]2O)C[C@@H]1O)Cc1ccc(-c2ccccn2)cc1)C(C)(C)C` gave an inhibition constant Ki on Protease of 2 nM. This molecule registered a half-maximal effective concentration (EC50) in data set [1] of 180 nM. The same molecule had a CC50 in the data set with MT4 of over 50000 nM.
For `COC(=O)N[C@H](C(=O)N[C@@H](Cc1ccccc1)[C@@H](O)CN(Cc1ccc(-c2ccccn2)cc1)NC(=O)[C@@H](NC(=O)OC)C(C)(C)C)C(C)(C)C` [ATAZANAVIR], a half-maximal effect in data set [1] (EC50) was put at 3.9 nM. The microsomal CLint at 1 µM in data set [2] came to 90 µL/min/mg.
On Protease, `COC(=O)N[C@H](C(=O)NN(CC[C@]1(Cc2ccccc2)C(=O)N([C@H]2c3ccccc3C[C@H]2O)C[C@H]1O)Cc1ccc(Br)cc1)C(C)(C)C` showed an inhibition constant Ki of 1200 nM. This molecule also came in with an EC50 in data set [1] of over 10000 nM. This molecule gave a CC50 in the data set with MT4 of 15000 nM.
As to `COC(=O)N[C@H](C(=O)NN(CC[C@@]1(Cc2ccccc2)C(=O)N([C@H]2c3ccccc3C[C@H]2O)C[C@H]1O)Cc1ccc(-c2ccncc2)cc1)C(C)(C)C`, on Protease, the Ki is 0.4 nM. The molecule further showed an EC50 in data set [1] of 40 nM. The CC50 with MT4 is over 50000 nM.
`COC(=O)N[C@H](C(=O)NN(CC[C@@]1(Cc2ccccc2)C(=O)N([C@H]2c3ccccc3C[C@H]2O[Si](C)(C)C(C)(C)C)C[C@@H]1O[Si](C)(C)C(C)(C)C)Cc1ccc(Br)cc1)C(C)(C)C` gave a Ki on Protease of 800 nM. In addition, the 50% effective concentration (EC50) in data set [1] was over 10000 nM.
Turning to `COC(=O)N[C@H](C(=O)NN(CC[C@@]1(Cc2ccccc2)C(=O)N([C@H]2c3ccccc3C[C@H]2O)C[C@H]1O)Cc1ccc(-c2ccccn2)cc1)C(C)(C)C`, the affinity on Protease, expressed as Ki, was 1.7 nM. This molecule also gave a concentration for a half-maximal effect (EC50) in data set [1] of 190 nM. In the data set on MT4, this molecule had a CC50 of 28000 nM.
`COC(=O)N[C@H](C(=O)NN(CC[C@@]1(Cc2ccccc2)C(=O)N([C@H]2c3ccccc3C[C@H]2O[Si](C)(C)C(C)(C)C)C[C@H]1O[Si](C)(C)C(C)(C)C)Cc1ccc(Br)cc1)C(C)(C)C` gave a Ki at Protease of 760 nM. The half-maximal effective concentration (EC50) in data set [1] is over 10000 nM. For the same molecule, the 50% cytotoxic concentration (CC50) with MT4 was over 50000 nM.
On Protease, `COC(=O)N[C@H](C(=O)NN(CC[C@@]1(Cc2ccccc2)C(=O)N([C@H]2c3ccccc3C[C@H]2O)C[C@@H]1O)Cc1ccc(-c2ccncc2)cc1)C(C)(C)C` had an inhibitory constant (Ki) of 1.7 nM. Moreover, the EC50 in data set [1] came to 96 nM.
On to `COC(=O)N[C@H](C(=O)NN(CCC[C@@]1(Cc2ccccc2)C(=O)N([C@H]2c3ccccc3C[C@H]2O)C[C@H]1O)Cc1ccc(-c2cccnc2)cc1)C(C)(C)C`, for which the Ki at Protease worked out at 5.3 nM. Further, in data set [1], the midpoint of the response, the EC50, lay at 1800 nM. Besides, in the data set with MT4, the CC50 is 23000 nM. The apparent permeability (Papp) with Caco-2 is 4.4 ×10⁻⁶ cm/s. The CLH with Liver microsomes worked out at 122 µL/min/mg.
For the molecule `COC(=O)N[C@H](C(=O)NN(CC[C@@]1(Cc2ccccc2)C(=O)N([C@H]2c3ccccc3C[C@H]2O)C[C@@H]1O)Cc1ccc(-c2cccnc2)cc1)C(C)(C)C`, affinity on Protease was put at a Ki of 0.7 nM. In addition, in data set [1], the EC50 was 100 nM. In addition, the Papp with Caco-2 came out at 5.1 ×10⁻⁶ cm/s. In addition, the CLH in the data set on Liver microsomes turned out to be 120 µL/min/mg.
Molecule `COC(=O)N[C@H](C(=O)NN(CCC1(Cc2ccccc2)C(=O)N([C@H]2c3ccccc3C[C@H]2O)CC1O)Cc1ccc(-c2ccncc2)cc1)C(C)(C)C` (stereo not given in full) registered an inhibition constant Ki on Protease of 0.8 nM.
`COC(=O)N[C@H](C(=O)NN(CC[C@]1(Cc2ccccc2)C(=O)N([C@H]2c3ccccc3C[C@H]2O)C[C@@H]1O)Cc1ccc(Br)cc1)C(C)(C)C` returned a Ki at Protease of 940 nM. For the same molecule, the half-maximal effective concentration (EC50) in data set [1] is over 10000 nM.
`COC(=O)N[C@H](C(=O)NN(CC[C@@]1(Cc2ccccc2)C(=O)N([C@H]2c3ccccc3C[C@H]2O)C[C@H]1O)Cc1ccc(Br)cc1)C(C)(C)C`: the Ki at Protease was 2.1 nM. This molecule returned a concentration giving a half-maximal response (EC50) in data set [1] of 640 nM. Besides, the CC50 in the data set with MT4 is over 50000 nM. Moreover, the CLH in the data set with Liver microsomes was over 300 µL/min/mg.
Turning to `COC(=O)N[C@H](C(=O)NN(CC[C@@]1(Cc2ccccc2)C(=O)N([C@H]2c3ccccc3C[C@H]2O)C[C@H]1O)Cc1ccc(-c2cccnc2)cc1)C(C)(C)C`, at Protease, the Ki came out at 0.8 nM. The same molecule displayed a 50% effective concentration (EC50) in data set [1] of 40 nM. The molecule further registered a CC50 in the data set with MT4 of over 50000 nM. Moreover, the Papp with Caco-2 came to 3.8 ×10⁻⁶ cm/s. In the data set on Liver microsomes, this molecule gave a CLH of 230 µL/min/mg.
For `COC(=O)N[C@H](C(=O)NN(CCC[C@@]1(Cc2ccccc2)C(=O)N([C@H]2c3ccccc3C[C@H]2O)C[C@H]1O)Cc1ccc(-c2ccncc2)cc1)C(C)(C)C`, in data set [1], a half-maximal effect (EC50) was put at 700 nM. The same molecule came in with a half-maximal cytotoxic concentration (CC50) in the data set with MT4 of 5900 nM.
Molecule `COC(=O)N[C@H](C(=O)NN(CCC[C@@]1(Cc2ccccc2)C(=O)N([C@H]2c3ccccc3C[C@H]2O)C[C@H]1O)Cc1ccc(-c2ccccc2)cc1)C(C)(C)C` showed a Ki at Protease of 12 nM. The molecule also yielded an EC50 in data set [1] of 850 nM. Also, the CC50 in the data set on MT4 amounted to 15000 nM.
In turn, `COC(=O)N[C@H](C(=O)NN(CC[C@@]1(Cc2ccccc2)C(=O)N([C@H]2c3ccccc3C[C@H]2O)C[C@@H]1O)Cc1ccc(Br)cc1)C(C)(C)C` displayed a Ki at Protease of 6.4 nM. For the same molecule, in data set [1], the response was half-maximal at 350 nM (EC50). For the same molecule, in the data set with Caco-2, the Papp is 17 ×10⁻⁶ cm/s.
Take `COC(=O)N[C@H](C(=O)NN(CCC[C@@]1(Cc2ccccc2)C(=O)N([C@H]2c3ccccc3C[C@H]2O)C[C@H]1O)Cc1ccc(Br)cc1)C(C)(C)C`: the inhibition constant Ki on Protease amounted to 13 nM. For the same molecule, in data set [1], the EC50 amounted to 3900 nM. The molecule also registered a cytotoxic concentration (CC50) with MT4 of 26000 nM. Besides, the Papp in the data set on Caco-2 was found to be 22 ×10⁻⁶ cm/s. The molecule further showed a CLH with Liver microsomes of over 300 µL/min/mg.
Take `COC(=O)N[C@H](C(=O)NN(CCC[C@@]1(Cc2ccccc2)C(=O)N([C@H]2c3ccccc3C[C@H]2O)C[C@H]1O)Cc1ccc(-c2ccccn2)cc1)C(C)(C)C`: the Ki on Protease amounted to 6.3 nM. In data set [1], this molecule had an EC50 of 2500 nM. This molecule also gave a CC50 in the data set with MT4 of 31000 nM. The Papp with Caco-2 was determined as 3.4 ×10⁻⁶ cm/s. The CLH in the data set with Liver microsomes came to 130 µL/min/mg.

These data come from ChEMBL document CHEMBL2029335, “Synthesis, X-ray analysis, and biological evaluation of a new class of stereopure lactam-based HIV-1 protease inhibitors” (J Med Chem, 2012).
